Test [1] has as its system New Zealand White rabbits. Conditions: conscious rabbits, intravenous, positive control, before the blood pressure reversed back. Here is the method:
Four adult New Zealand White rabbits of both sexes are chosen for these studies. The experiments are conducted in accordance with the Australian code of Practice for the Care and use of Animals for Scientific Purposes and approval is sought from the Animal Experimental Committee of Alfred Hospital, Baker IDI, Melbourne, Australia. The conscious rabbits are implanted with an intravenous catheter in marginal ear vein or by centrally by […] catheter interfaced to a pressure transducer connected to a suitable recorder. To unveil peripheral effects of test compound, two sets of acute studies are conducted in rabbits. In the first set of studies, test compound is dosed to rabbit intravenously for a dose-response study with cumulative doses starting 0 (Ringer's Lock solution as a vehicle), 0.1, 0.3, 1, 3.2 and 10 mg/kg where each dose is tested on a separate day. A single intravenous bolus dose at 3 mg/kg is given and a time-course study is conducted in the second set of studies. Systolic, […], mean and […] blood pressures are recorded in both the studies.

Test [2] has as its target T1, human recombinant serotonin (5-Hydroxytryptamine) 5-HT2C receptor (Homo sapiens, UniProt P28335).
T1 construct: expressed in transfected cells; host or cells: CHO-K1
T1 sequence (P28335 33-458): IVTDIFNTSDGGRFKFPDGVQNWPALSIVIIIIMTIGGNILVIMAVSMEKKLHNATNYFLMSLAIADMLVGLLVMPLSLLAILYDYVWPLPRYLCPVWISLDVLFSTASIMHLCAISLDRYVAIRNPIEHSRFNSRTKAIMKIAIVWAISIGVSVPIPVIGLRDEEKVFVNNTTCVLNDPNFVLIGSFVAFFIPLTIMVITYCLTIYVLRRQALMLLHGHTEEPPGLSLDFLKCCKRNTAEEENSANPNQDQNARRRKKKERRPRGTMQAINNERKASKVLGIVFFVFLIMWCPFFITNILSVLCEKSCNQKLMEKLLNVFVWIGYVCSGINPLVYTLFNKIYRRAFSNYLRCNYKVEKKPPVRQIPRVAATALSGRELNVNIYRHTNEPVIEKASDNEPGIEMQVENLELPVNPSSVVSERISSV
Kind of test: Serotonin 5-HT2C radioligand binding ([3H]Mesulergine). The conditions noted are these: 0.1 μM compound; read-out: Percentage inhibition of ligand binding, Serotonin 5-HT2C. Here is the method:
To evaluate in radioligand binding assays the activity of compounds of the invention, human recombinant serotonin (5-Hydroxytryptamine) 5-HT2C receptor expressed in Chinese hamster ovary (CHO) K1 cells (Wolf, W. et al, J. Neurochem. 69:1449, 1997) in a modified Tris-HCl buffer (50 mM Tris-HCl, pH 7.4, 0.1% Ascorbic Acid, 10 μM Pargyline) was used. Compounds of the invention were incubated with 1 nM [^3H]Mesulergine for 60 min at 25° C. Non-specific binding was estimated in the presence of 1 μM Mianserin. Receptor proteins were filtered and washed, the filters were then counted to determine [^3H]Mesulergine specifically bound. Compounds were screened at 1 μM or lower, using 1% DMSO as vehicle. Biochemical assay results are presented as the percent inhibition of specific binding in Table 5.

Test [3] deals with T2, human recombinant serotonin (5-Hydroxytryptamine) 5-HT2A receptor (Homo sapiens, UniProt P28223).
T2 construct: expressed in transfected cells; host or cells: CHO-K1
T2 sequence (P28223 whole entry): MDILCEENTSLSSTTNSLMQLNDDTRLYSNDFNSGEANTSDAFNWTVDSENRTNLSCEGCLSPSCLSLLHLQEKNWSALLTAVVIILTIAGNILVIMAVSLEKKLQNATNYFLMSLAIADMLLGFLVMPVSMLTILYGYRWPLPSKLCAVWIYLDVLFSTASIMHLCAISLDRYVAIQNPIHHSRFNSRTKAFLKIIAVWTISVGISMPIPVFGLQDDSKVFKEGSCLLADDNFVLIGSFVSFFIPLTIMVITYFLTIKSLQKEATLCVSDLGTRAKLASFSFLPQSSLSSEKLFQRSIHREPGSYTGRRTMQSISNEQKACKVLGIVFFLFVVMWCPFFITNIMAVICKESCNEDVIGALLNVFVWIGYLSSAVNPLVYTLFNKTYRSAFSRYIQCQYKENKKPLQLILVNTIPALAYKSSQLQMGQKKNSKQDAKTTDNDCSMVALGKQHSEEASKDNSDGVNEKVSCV
Briefly: Serotonin 5-HT2A radioligand binding ([3H]Ketanserin). Conditions: 0.1 μM compound; read-out: Percentage inhibition of ligand binding, Serotonin 5-HT2A. Here is the method: To evaluate in radioligand binding assays the activity of compounds of the invention, human recombinant serotonin (5-Hydroxytryptamine) 5-HT2A receptor expressed in Chinese hamster ovary (CHO) K1 cells (Bonhaus, D. et al, Br. J. Pharmacol. 115:622, 1995; Saucier, C. et al, J. Neurochem. 68:1998, 1997) in a 50 mM Tris-HCl buffer, pH 7.4, was used. Compounds of the invention were incubated with 0.5 nM [^3H]Ketanserin for 60 min at 25° C. Non-specific binding was estimated in the presence of 1 μM Mianserin. Receptor proteins were filtered and washed, the filters were then counted to determine [^3H]Ketanserin specifically bound. Compounds were screened at 1 μM or lower, using 1% DMSO as vehicle. Biochemical assay results are presented as the percent inhibition of specific binding in Table 5.

Test [4] concerns the target T3, human recombinant serotonin (5-Hydroxytryptamine) 5-HT7 receptor (Homo sapiens, UniProt P34969).
T3 construct: expressed in transfected cells; host or cells: CHO
Kind of test: Serotonin 5-HT7 radioligand binding ([3H]LSD). The conditions noted are these: 0.1 μM compound; read-out: Percentage inhibition of ligand binding, Serotonin 5-HT7. As to the method:
To evaluate in radioligand binding assays the activity of compounds of the invention, human recombinant serotonin (5-Hydroxytryptamine) 5-HT7 receptor expressed in Chinese hamster ovary (CHO) cells (Roth, B. et al, J. Pharmacol. Exp. Ther. 268:1403, 1994; Shen, Y. et al, J. Biol. Chem. 268:18200, 1993) in a modified Tris-HCl buffer (50 mM Tris-HCl, pH 7.4, 10 mM MgCl2, 0.5 mM EDTA) was used. Compounds of invention were incubated with 5.5 nM [^3H] Lysergic acid diethylamide (LSD) for 2 h at 25° C. Non-specific binding was estimated in the presence of 10 μM Serotonin (5-HT). Receptor proteins were filtered and washed, the filters were then counted to determine [^3H]LSD specifically bound. Compounds were screened at 1 μM or lower, using 1% DMSO as vehicle. Biochemical assay results are presented as the percent inhibition of specific binding in Table 5.

For test [5], the target named is T4, human recombinant histamine H1 receptor (Homo sapiens, UniProt P35367).
T4 construct: expressed in transfected cells; host or cells: CHO-K1
T4 sequence (P35367 whole entry): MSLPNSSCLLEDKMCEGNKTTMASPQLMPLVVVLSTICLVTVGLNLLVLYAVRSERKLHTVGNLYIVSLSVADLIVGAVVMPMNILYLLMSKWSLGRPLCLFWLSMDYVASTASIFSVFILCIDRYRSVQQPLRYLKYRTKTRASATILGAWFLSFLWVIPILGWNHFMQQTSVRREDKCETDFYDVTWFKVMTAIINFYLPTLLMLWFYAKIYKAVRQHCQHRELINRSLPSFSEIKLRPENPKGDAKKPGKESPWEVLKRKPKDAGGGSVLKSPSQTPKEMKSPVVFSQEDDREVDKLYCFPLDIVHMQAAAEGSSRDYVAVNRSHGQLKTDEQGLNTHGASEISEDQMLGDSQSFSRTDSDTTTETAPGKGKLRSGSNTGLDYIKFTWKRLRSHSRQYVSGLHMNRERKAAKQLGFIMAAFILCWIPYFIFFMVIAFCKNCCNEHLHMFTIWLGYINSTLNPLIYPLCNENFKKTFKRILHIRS
Briefly: Histamine H1 radioligand binding ([3H]Pyrilamine). Conditions: 1 μM compound; read-out: Binding data (Percentage inhibition) Histamine H1 (1 μM). Here is the method: To evaluate in radioligand binding assays the activity of compounds of the invention, human recombinant histamine H1 receptor expressed in Chinese hamster ovary (CHO) K1 cells (De Backer, M. et al, Biochem. Biophys. Res. Comm. 197(3):1601, 1993) in a modified Tris-HCl buffer (50 mM Tris-HCl, pH 7.4, 2 mM MgCl2, 100 mM NaCl, 250 mM Sucrose) was used. Compounds of the invention were incubated with 1.2 nM [^3H]Pyrilamine for 180 min at 25° C. Non-specific binding was estimated in the presence of 1 μM Pyrilamine. Receptor proteins were filtered and washed, the filters were then counted to determine [^3H]Pyrilamine specifically bound. Compounds were screened at 1 μM or lower, using 1% DMSO as vehicle. Biochemical assay results are presented as the percent inhibition of specific binding in Table 3.

In test [6] the target is T5, human recombinant serotonin (5-Hydroxytryptamine) 5-HT6 receptor (Homo sapiens, UniProt P50406).
T5 construct: expressed in transfected cells; host or cells: HeLa
T5 sequence (P50406 whole entry): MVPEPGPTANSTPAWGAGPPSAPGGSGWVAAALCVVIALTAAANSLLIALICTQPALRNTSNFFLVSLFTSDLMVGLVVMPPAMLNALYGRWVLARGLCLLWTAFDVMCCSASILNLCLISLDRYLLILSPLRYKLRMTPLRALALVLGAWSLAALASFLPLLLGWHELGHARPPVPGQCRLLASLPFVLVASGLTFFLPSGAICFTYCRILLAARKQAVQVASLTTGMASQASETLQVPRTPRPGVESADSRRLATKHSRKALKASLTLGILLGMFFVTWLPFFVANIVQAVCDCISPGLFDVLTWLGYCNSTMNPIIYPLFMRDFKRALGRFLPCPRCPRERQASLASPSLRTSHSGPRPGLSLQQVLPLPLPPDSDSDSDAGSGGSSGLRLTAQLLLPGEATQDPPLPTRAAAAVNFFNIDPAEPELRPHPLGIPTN
Briefly: Serotonin 5-HT6 radioligand binding ([3H]LSD). The conditions noted are these: 0.1 μM compound; read-out: Percentage inhibition of ligand binding, Serotonin 5-HT6. Here is the method:
To evaluate in radioligand binding assays the activity of compounds of the invention, human recombinant serotonin (5-Hydroxytryptamine) 5-HT6 receptor expressed in human HeLa cells (Monsma, F. Jr. et al, Mol. Pharmacol. 43:320, 1993) in a modified Tris-HCl buffer (50 mM Tris-HCl, pH 7.4, 150 mM NaCl, 2 mM Ascorbic Acid, 0.001% BSA) was used. Compounds of the invention were incubated with 1.5 nM [3H]Lysergic acid diethylamide (LSD) for 120 min at 37° C. Non-specific binding was estimated in the presence of 5 μM Serotonin (5-HT). Receptor proteins were filtered and washed, the filters were then counted to determine [3H]LSD specifically bound. Compounds were screened at 1 μM or lower, using 1% DMSO as vehicle. Biochemical assay results are presented as the percent inhibition of specific binding in Table 5.

Test [7] concerns the target T6, human recombinant dopamine D2L receptor (Homo sapiens, UniProt P14416).
T6 construct: expressed in transfected cells; host or cells: CHO
Briefly: Dopamine D2L radioligand binding ([3H]Spiperone). Conditions: 1 μM compound; read-out: Percentage inhibition of ligand binding, Dopamine D2L. As to the method:
To evaluate in radioligand binding assays the activity of compounds of the invention, human recombinant dopamine D2L receptor expressed in Chinese hamster ovary (CHO) cells (Grandy, D. et al, Proc. Natl. Acad. Sci. USA. 86:9762, 1989; Hayes, G. et al, Mol. Endocrinol. 6:920, 1992) in a modified Tris-HCl buffer (50 mM Tris-HCl, pH 7.4, 1.4 mM Ascorbic Acid, 0.001% BSA, 150 mM NaCl) was used. Compounds of the invention were incubated with 0.16 nM [^3H]Spiperone for 120 min at 25° C. Non-specific binding was estimated in the presence of 10 μM Haloperidol. Receptor proteins were filtered and washed, the filters were then counted to determine [^3H]Spiperone specifically bound. Compounds were screened at 1 μM or lower, using 1% DMSO as vehicle. Biochemical assay results are presented as the percent inhibition of specific binding in Table 4.

T6 sequence (P14416 whole entry): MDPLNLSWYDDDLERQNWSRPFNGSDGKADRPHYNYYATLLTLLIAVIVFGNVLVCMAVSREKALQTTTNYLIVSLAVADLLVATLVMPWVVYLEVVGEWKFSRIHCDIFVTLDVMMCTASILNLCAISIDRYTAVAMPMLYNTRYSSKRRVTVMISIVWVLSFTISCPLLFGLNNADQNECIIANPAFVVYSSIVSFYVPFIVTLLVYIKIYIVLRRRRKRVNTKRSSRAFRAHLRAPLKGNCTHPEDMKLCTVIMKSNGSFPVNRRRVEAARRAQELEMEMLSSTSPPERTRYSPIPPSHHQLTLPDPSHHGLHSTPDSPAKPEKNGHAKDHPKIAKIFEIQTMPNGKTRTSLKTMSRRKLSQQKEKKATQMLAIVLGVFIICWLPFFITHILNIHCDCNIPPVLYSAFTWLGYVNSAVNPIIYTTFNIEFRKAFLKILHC
T3 sequence (P34969 whole entry): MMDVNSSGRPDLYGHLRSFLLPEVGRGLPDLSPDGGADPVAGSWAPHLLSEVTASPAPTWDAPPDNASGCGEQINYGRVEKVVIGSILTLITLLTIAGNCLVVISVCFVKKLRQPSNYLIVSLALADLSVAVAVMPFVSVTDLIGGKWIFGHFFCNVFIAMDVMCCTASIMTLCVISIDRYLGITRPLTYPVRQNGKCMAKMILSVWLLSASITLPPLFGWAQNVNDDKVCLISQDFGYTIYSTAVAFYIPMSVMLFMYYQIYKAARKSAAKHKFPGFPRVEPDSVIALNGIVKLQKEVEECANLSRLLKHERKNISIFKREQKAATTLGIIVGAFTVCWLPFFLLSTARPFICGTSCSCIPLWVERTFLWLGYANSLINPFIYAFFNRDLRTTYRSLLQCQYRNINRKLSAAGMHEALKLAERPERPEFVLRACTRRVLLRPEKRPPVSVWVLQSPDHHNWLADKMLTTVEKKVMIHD

With `Clc1cccc(Cl)c1N=C1NCCN1` [Clonidine], in test [1], the “maximum drop of arterial blood pressure” value is −6 mmHg.
As for `CN1CCc2c(c3cc(Cl)ccc3n2C=C2CCCCC2)C1` [i-1], the inhibition at 0.1 µM in test [2] is 98%; in test [3] it was 94%; in test [4] it was 81%; in test [6] it was 91%. The inhibition at 1 µM in test [5] worked out at 100%; in test [7], 93%.
